The numbers were not newly measured in patent US6465497B2, “Arylthiazolidinedione derivatives” (Merck & Co., Inc., priority 1999, dated 2002), which cites them from elsewhere.

For data set [1], the target named is T1, PPARγ (Homo sapiens, UniProt P37231).
T1 sequence (P37231 1-505): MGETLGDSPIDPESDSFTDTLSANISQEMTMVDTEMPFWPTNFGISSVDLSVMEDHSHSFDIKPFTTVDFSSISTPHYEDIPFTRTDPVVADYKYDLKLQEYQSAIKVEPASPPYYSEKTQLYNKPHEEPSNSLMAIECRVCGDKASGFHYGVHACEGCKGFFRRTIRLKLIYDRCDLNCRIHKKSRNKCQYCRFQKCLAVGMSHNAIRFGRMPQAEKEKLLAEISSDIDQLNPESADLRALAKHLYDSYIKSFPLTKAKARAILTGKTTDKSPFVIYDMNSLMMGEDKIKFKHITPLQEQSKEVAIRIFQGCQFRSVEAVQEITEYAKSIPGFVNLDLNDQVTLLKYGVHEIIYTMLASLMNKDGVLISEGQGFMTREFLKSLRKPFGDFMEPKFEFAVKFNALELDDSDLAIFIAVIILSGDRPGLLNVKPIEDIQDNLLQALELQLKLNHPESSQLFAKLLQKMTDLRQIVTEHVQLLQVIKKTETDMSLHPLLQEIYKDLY
The settings on record: subsequent studies; Willson et al, J. Med. Chem. 1996.

For data set [2], the system named is ob/ob mice. The settings on record: Cantello et al, J. Med. Chem. 1994.
Data set [3] concerns diabetic mouse model. Particulars: Sohda et al, Chem. Pharm. Bull. 1982.

Take `CN(CCOc1ccc(C2SC(=O)NC2=O)cc1)c1nc2ccccc2o1` (stereo not drawn) [(1), 5-[4-[2-(2-benzoxazolylmethylamino)ethoxy]phenyl]-2,4-thiazolidinedione]: the “amounts required for PPARγ activation” value in data set [1] is on record as “relatively high amounts”. Besides, the antihyperglycemic activity result in data set [2] is on record as “no antihyperglycemic activity”.

On to `O=C1NC(=O)C(c2ccc(OCCc3ccccc3)cc2)S1` (stereo not drawn) [(2), 5-[4-(phenylethoxy)phenyl]-2,4-thiazolidinedione], for which, in data set [3], the antihyperglycemic effect entry is given as “no antihyperglycemic effect”.
